These results are taken from ChEMBL document CHEMBL3822399, “Discovery of novel, high potent, ABC type PTP1B inhibitors with TCPTP selectivity and cellular activity” (Eur J Med Chem, 2016).

Structures are written as SMILES. pIC50: −log10 of the molar value. Active and inactive are the calls of the source. No cut-off for these calls is given here. Where only a bound is given, the exact number is not on record here.

The target of experiment [1] is T1, Tyrosine-protein phosphatase non-receptor type 1 (Homo sapiens, UniProt P18031).
T1 sequence (P18031 whole entry): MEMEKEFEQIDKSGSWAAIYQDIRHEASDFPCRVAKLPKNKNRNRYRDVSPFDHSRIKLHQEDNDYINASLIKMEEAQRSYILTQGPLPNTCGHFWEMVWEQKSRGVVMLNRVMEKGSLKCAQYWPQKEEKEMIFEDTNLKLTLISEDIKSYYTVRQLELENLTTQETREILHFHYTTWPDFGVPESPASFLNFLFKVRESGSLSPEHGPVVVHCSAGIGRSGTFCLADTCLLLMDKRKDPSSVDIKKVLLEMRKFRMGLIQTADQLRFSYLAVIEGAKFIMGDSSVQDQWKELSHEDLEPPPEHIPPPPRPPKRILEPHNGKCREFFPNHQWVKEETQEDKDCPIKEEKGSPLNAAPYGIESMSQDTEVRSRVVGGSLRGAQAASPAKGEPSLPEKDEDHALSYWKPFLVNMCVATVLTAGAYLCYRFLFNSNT
As to the kind of experiment: Inhibition of recombinant PTP1B (unknown origin) using pNPP as substrate incubated for 30 mins.

Experiment [2] deals with T2, Tyrosine-protein phosphatase non-receptor type 2 (Homo sapiens) (UniProt P17706).
T2 sequence (whole entry): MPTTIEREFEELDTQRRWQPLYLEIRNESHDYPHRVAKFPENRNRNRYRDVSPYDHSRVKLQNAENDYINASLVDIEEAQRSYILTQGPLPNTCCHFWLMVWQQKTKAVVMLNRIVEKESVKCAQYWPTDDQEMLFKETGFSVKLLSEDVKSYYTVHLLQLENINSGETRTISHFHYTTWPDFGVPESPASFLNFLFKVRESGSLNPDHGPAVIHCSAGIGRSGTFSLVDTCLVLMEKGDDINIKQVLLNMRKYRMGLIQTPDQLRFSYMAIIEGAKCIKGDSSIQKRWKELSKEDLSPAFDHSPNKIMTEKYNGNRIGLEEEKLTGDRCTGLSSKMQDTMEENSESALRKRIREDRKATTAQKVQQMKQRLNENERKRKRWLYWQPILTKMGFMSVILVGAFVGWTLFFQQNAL
As to the kind of experiment: Inhibition of human TCPTP using pNPP as substrate at 25 uM incubated for 30 mins relative to control.

Experiment [3] has as its target T3, Tyrosine-protein phosphatase non-receptor type 6 (Homo sapiens, UniProt P29350). As to the kind of experiment: Inhibition of human SHP1 using pNPP as substrate at 25 uM incubated for 30 mins relative to control.
Experiment [4] has as its target T4, Tyrosine-protein phosphatase non-receptor type 11 (Homo sapiens) (UniProt Q06124).
T4 sequence (whole entry): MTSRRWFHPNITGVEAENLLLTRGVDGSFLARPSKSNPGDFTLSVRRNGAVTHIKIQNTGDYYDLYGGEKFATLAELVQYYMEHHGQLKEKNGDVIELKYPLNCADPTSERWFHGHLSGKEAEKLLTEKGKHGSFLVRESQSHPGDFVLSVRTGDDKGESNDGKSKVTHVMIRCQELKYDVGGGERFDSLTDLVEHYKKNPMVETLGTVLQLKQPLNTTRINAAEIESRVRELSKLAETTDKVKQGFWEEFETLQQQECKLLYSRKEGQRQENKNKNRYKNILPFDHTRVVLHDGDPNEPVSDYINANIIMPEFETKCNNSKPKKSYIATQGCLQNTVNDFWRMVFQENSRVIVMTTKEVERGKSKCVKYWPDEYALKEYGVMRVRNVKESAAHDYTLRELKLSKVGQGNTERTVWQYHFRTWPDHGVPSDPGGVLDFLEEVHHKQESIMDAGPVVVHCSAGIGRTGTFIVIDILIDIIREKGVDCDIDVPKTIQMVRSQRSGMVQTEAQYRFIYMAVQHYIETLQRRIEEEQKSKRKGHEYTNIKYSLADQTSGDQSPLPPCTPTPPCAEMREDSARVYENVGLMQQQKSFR
In words: Inhibition of human SHP2 using pNPP as substrate at 25 uM incubated for 30 mins relative to control.

The target in experiment [5] is T5, Receptor-type tyrosine-protein phosphatase F (Homo sapiens, UniProt P10586). As to the kind of experiment: Inhibition of human LAR using pNPP as substrate at 25 uM incubated for 30 mins relative to control.
T5 sequence (P10586 whole entry): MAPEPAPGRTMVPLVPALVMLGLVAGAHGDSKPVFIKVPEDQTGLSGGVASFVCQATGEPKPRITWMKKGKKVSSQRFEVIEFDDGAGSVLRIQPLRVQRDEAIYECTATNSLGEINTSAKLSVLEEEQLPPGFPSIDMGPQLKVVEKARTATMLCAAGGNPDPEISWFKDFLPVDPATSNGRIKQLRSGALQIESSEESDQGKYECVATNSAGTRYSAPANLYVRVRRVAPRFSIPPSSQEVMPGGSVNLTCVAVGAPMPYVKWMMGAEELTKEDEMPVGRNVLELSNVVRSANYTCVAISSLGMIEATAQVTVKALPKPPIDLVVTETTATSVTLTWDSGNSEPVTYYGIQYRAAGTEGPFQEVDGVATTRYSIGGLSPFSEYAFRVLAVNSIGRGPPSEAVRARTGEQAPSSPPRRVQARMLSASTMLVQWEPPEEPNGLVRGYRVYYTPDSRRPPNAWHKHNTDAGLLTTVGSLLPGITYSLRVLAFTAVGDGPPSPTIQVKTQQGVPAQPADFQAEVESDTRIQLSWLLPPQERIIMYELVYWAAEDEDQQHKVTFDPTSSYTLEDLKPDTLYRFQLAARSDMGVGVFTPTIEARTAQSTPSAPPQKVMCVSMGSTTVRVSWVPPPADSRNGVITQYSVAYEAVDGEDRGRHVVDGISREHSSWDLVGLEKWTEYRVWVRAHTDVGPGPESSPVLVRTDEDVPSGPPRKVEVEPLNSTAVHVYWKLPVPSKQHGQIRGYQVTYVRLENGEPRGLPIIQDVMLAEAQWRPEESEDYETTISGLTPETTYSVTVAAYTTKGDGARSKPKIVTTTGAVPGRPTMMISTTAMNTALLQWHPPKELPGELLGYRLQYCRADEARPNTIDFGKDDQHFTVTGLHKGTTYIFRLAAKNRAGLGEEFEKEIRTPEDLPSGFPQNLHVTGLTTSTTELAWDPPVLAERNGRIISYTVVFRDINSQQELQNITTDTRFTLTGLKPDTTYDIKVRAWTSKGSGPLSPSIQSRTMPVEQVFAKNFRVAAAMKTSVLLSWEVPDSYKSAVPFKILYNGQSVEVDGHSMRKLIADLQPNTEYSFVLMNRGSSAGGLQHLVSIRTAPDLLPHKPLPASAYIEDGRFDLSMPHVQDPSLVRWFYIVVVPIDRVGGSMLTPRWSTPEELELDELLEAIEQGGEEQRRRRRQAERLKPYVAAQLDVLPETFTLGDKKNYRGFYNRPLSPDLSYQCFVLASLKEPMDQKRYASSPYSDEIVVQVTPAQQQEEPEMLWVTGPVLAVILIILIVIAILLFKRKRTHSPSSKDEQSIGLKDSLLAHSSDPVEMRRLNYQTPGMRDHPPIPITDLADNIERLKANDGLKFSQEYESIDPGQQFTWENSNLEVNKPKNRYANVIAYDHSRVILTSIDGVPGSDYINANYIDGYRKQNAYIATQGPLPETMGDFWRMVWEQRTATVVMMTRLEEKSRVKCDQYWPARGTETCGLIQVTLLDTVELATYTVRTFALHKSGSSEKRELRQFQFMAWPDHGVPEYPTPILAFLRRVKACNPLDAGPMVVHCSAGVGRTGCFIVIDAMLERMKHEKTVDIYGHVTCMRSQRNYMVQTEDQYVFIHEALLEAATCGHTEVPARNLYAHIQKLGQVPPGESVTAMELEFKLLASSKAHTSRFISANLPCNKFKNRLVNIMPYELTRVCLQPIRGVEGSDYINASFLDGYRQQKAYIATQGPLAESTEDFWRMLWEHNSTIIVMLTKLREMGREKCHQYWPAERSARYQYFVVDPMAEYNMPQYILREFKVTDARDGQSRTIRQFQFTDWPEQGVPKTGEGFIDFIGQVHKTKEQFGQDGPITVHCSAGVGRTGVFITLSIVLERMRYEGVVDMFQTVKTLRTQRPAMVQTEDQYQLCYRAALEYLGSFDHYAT
Experiment [6] addresses T6, Tyrosine-protein phosphatase non-receptor type 1 (Rattus norvegicus) (UniProt P20417).
T6 sequence (whole entry): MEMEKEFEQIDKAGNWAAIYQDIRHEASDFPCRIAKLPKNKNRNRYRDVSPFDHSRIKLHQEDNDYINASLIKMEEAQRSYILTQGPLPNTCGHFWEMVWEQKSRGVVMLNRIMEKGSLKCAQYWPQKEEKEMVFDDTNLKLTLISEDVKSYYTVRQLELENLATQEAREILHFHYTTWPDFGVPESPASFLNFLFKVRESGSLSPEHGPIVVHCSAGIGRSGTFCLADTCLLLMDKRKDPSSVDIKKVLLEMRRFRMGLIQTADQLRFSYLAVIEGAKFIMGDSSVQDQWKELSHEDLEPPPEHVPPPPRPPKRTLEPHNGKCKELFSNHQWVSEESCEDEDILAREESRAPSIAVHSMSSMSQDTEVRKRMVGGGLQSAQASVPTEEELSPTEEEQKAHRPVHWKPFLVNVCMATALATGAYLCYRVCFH
In words: Inhibition of PTP1B in rat L6 cells assessed as increase in insulin-stimulated 2-NBDG uptake at 5 uM preincubated for 4 hrs followed by insulin stimulation for 10 mins and subsequent addition of 2-NBDG measured after 30 mins by fluorescence assay relative to control. Type of experiment: cell-based. Also on record: scale not given: the % may be the effect or the level left.

In experiment [7] the target is T6, Tyrosine-protein phosphatase non-receptor type 1 (Rattus norvegicus). In words: Inhibition of PTP1B in rat L6 cells assessed as increase in insulin-stimulated 2-NBDG uptake at 10 uM preincubated for 4 hrs followed by insulin stimulation for 10 mins and subsequent addition of 2-NBDG measured after 30 mins by fluorescence assay relative to control. It counts as cell-based. Details: scale not given: the % may be the effect or the level left.

Experiment [8] has the same target. In words: Inhibition of PTP1B in rat L6 cells assessed as increase in insulin-stimulated 2-NBDG uptake at 20 uM preincubated for 4 hrs followed by insulin stimulation for 10 mins and subsequent addition of 2-NBDG measured after 30 mins by fluorescence assay relative to control. It counts as cell-based. Also on record: scale not given: the % may be the effect or the level left.

Experiment [9] deals with T7, Tyrosine-protein phosphatase non-receptor type 1 (Homo sapiens) (UniProt P18031).
T7 sequence (whole entry): T1 sequence (P18031 whole entry)
In words: Inhibition of recombinant PTP1B (unknown origin) using pNPP as substrate at 25 uM incubated for 30 mins relative to control.

Experiment [10] deals with T8, Tyrosine-protein phosphatase non-receptor type 2 (Homo sapiens, UniProt P17706).
T8 sequence (P17706 whole entry): T2 sequence (whole entry)
As to the kind of experiment: Inhibition of human TCPTP using pNPP as substrate incubated for 30 mins.

In experiment [11] the target is T3, Tyrosine-protein phosphatase non-receptor type 6. In words: Inhibition of human SHP1 using pNPP as substrate incubated for 30 mins.
For experiment [12], the target named is T9, Tyrosine-protein phosphatase non-receptor type 11 (Homo sapiens, UniProt Q06124).
T9 sequence (Q06124 whole entry): T4 sequence (whole entry)
As to the kind of experiment: Inhibition of human SHP2 using pNPP as substrate incubated for 30 mins.

Experiment [13] deals with T5, Receptor-type tyrosine-protein phosphatase F. As to the kind of experiment: Inhibition of human LAR using pNPP as substrate incubated for 30 mins.
For experiment [14], the species on record is Homo sapiens. As to the kind of experiment: Selectivity ratio of IC50 for human SHP1 to IC50 for recombinant PTP1B (unknown origin).
In experiment [15] the test system is CHO. In words: Inhibition of PTP1B in CHO cells expressing human IR assessed as increase in insulin-mediated IR-beta phosphorylation at tyrosine residue 20 at 15 to 30 uM preincubated for 4 hrs followed by insulin stimulation measured after 10 mins by western blot analysis. It counts as cell-based. The note with it: Cricetulus griseus.

T3 sequence (P29350 whole entry): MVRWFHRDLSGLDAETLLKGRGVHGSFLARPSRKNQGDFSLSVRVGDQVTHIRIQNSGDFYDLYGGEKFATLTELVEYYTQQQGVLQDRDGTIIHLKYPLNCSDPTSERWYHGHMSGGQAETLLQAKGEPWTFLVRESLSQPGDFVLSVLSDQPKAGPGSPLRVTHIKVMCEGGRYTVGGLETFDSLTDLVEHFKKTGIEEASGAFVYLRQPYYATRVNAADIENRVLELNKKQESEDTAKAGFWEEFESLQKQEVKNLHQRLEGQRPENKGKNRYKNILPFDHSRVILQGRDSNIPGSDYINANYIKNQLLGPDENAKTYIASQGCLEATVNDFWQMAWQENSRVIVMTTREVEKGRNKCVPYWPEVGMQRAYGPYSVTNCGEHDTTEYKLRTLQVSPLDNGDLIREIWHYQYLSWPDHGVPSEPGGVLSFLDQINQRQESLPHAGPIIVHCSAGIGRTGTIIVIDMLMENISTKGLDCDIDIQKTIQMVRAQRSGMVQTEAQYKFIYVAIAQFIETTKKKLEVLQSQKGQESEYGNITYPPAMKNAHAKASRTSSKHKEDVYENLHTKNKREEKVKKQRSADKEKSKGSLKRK

What is called pIC50 is −log10 of the IC50, conventionally taken in molar units. Broadly, the inhibition is how much of the control response was suppressed. For the compound `CCCOc1ccc(N(Cc2ccc(N(CC(=O)OC)S(C)(=O)=O)cc2)S(=O)(=O)Cc2ccccc2)cc1C(=O)OC`, the pIC50 in experiment [1] was 6.03. Besides, the inhibition in experiment [2], in experiment [3], in experiment [4] and in experiment [5] was under 50% each time. In addition, the Activity was found to be 6.9% in experiment [6], 26.1% in experiment [7] and 27.7% in experiment [8].
As to `COC(=O)CN(c1ccc(CN(c2ccc(OCc3cccc(C)c3)c(C(=O)OC)c2)S(=O)(=O)Cc2ccccc2)cc1)S(C)(=O)=O`, the inhibition in experiment [9] was under 50%.
As to `COC(=O)CN(c1ccc(CN(c2ccc(OCc3ccccc3)cc2)S(=O)(=O)Cc2ccccc2)cc1)S(C)(=O)=O`, the pIC50 in experiment [1] was 4.80.
Consider `COC(=O)CN(c1ccc(CN(c2ccc(OCc3ccc(C)cc3)c(C(=O)OC)c2)S(=O)(=O)Cc2ccccc2)cc1)S(C)(=O)=O`, for which the pIC50 in experiment [1] was 7.30; in [10] it was 6.12; in experiment [11], 5.61; in [12], 5.67; in experiment [13] it was 4.90. Further, the Ratio IC50 in experiment [14] was 49. In experiment [15], the inhibition result was “Active”. In addition, the Activity in experiment [6] was found to be 16%; in [7], 19%; in experiment [8] it was 38.1%.
Take `CCCCOc1ccc(N(Cc2ccc(N(CC(=O)OC)S(C)(=O)=O)cc2)S(=O)(=O)Cc2ccccc2)cc1C(=O)OC`: the pIC50 in experiment [1] was 5.32.
For the compound `CC1(C)CC[C@]2(C(=O)O)CC[C@]3(C)C(=CC[C@@H]4[C@@]5(C)CC[C@H](O)C(C)(C)[C@@H]5CC[C@]43C)[C@@H]2C1` [OLEANOLIC_ACID], the results for the pIC50 in experiment [12] and in experiment [13] were 4.93 and 4.65, respectively.
`COC(=O)CN(c1ccc(CN(c2ccc(OCc3ccccc3)c(C(=O)OC)c2)S(=O)(=O)Cc2ccccc2)cc1)S(C)(=O)=O`: the pIC50 in experiment [1] is 6.45; in experiment [10], 6.37; in experiment [11] it was 5.19. Also, the inhibition in [4] and in experiment [5] was under 50% throughout. For the same compound, the Ratio IC50 in [14] turned out to be 18.
Consider `CCOc1ccc(N(Cc2ccc(N(CC(=O)OC)S(C)(=O)=O)cc2)S(=O)(=O)Cc2ccccc2)cc1C(=O)OC`, for which, in experiment [9], the inhibition was under 50%.
